{"source": "patent US6593372B2", "about": "“Therapeutic uses for nitric oxide inhibitors” (Cold Spring Harbor Laboratory, priority 1996, dated 2003)", "key": {"[1]": {"test_system": "tadpole brain, optic tectum", "assay": "Elvax implants with NO donor or NOS inhibitor in brain ventricle of stage 45 tadpoles, optic tectum analysis", "assay_type": "in vivo", "conditions": "for BrdU-positive cells (total), change / BrdU-positive cells per 10^3 cells, change / TUNEL-positive cells (total), change / TUNEL-positive cells per 10^3 cells, change / brain volume, change / cell density, change / cell number, change: vs saline control", "method": "To test the effect of exogenously supplying NO to the developing tadpole brain, pieces of the slow-release matrix Elvax impregnated either with S-nitroso-N-acetylpenicillamin (SNAP, a widely used donor or NO which releases NO upon hydrolysis), or with saline as a control were inserted into the brain ventricle of state 45 tadpoles. At 1 or 3 days after implantation the following parameters in the optic tectum were analyzed: the total number of cells (as measured by the number of DAPI-stained nuclei), the number of S phase proliferating cells (as measured by BrdU incorporation), the number of apoptotic cells (as measured by TUNEL assay), the relative numbers of BrdU- and TUNEL-positive cells per 10^3 total cells, the size of the optic tectum, and the cell density in the tectum (Table 5). […] At 3 days the effects of NO on cell proliferation are less pronounced, likely reflecting the complete hydrolysis of the NO donor and the cessation of NO release. […] An increase in programmed cell death in response to NO likely contributes to the decrease in the total number of cells in the brain.\nThe close proximity of proliferating cells and NOS-expressing cells in the optic tectum and data from the NO donor experiments above are consistent with the proposed antiproliferative role of NO during Xenopus brain development. To test the causative role of NO in cell cycle arrest of neuronal precursors and to determine whether production of NO is necessary for cell cycle arrest and subsequent differentiation of neuronal precursors in the developing Xenopus brain, NOS activity in the brain was inhibited by using Elavax matrix impregnated with a NOS inhibitor, either L-NAME or ETU, or with saline as a control. Pieces of impregnated matrix were inserted into the brain ventricle of stage 45 tadpoles. After 3 days of treatment the brains were examined for changes in the patterns of cell division and differentiation, cell number, and overall size and morphology.\nAnimals, NOS inhibitors, and NO donors. Albino Xenopus laevis tadpoles were obtained by human chorionic gonadotrophin induced matings and raised under standard conditions. At state 45^5, animals were anesthetized in 0.02% 3-aminobenzoic acid (MS-222; Sigma) and a tiny piece (100 μm^2×30 μm) of slow release Elvax plastic polymer (Dupont) was inserted into the tectal ventricle through an incision made in the overlying skin with a 30 gauge needle. Elvax was prepared with stock concentrations of the NOS inhibitors, 2-ethyl-2thiopseudourea (ETU, Sigma) or L-nitro-arginine methyl ester (L-NAME, Sigma) or the NO donor S-nitroso-acetylpenicillamnin (SNAP, Sigma) prepared as a 1:10 ratio of chemical to polymer matrix. Low molecular weight molecules, including L-NAME, are released at a constant rate over a period up to 30 days as the lyophilized Elvax matrix slowly hydrates. […] Control animals were treated with Elvax impregnated with saline (0.1 M phosphate buffer).\nHistochemistry and antibodies. Immunocytochemistry with wholemount preparations and sections of the tadpole was performed as described. Monoclonal antibodies to β-II tubulin, N-CAM (developed by U. Rutishauser), and Islet-1 (developed by T. M. Jessell) were obtained from the Developmental Studies Hybridoma Bank developed under the auspices of the NICHD and maintained by the University of Iowa, Department of Biological Sciences, Iowa City, Iowa 52243. Anti-mouse antibody conjugated to fluorescein (Bochringer Manheim) was used as a secondary antibody. Specimens were visualized and photographed under fluorescence or Normarski optics on a Zeiss Axiophot. For nuclei visualization, brain sections were stained with DAPI, a fluorescent DNA stain (Molecular Probes) at 1 μM. To identify cells in S phase tadpoles were injected with 50 μg/ml 5-Bromo-deoxyuridine (BrdU) (Beckton-dickinson). After two hours survival, animals were fixed in 3.7% paraformaldehyde for 2 hours and then in 70% ethanol overnight. […]"}, "BM cells [2]": {"test_system": "BM cells", "assay": "Hematopoietic markers in BM cells of irradiated mice after injection of NOS inhibitors", "assay_type": "in vivo", "conditions": "7-10 days after transplantation", "method": "To study the maturation of hematopoietic cells in the bone marrow of the irradiated recipient mice, the animals were treated as described above and the BM cells from the demurs of syngeneic donors were injected intravenously (10^5 BM cells per mice) in the recipients.\nThe BM cells were tested for the presence of various growth factor receptors which serve as markers of the differentiation stage and indicate the presence of stem cells and multipotent percursor cells. The BM preparations were tested for cells expressing receptors to HSF (ligand of c-kit), GM-CSF, G-CSF and IL-3."}, "BM cells [3]": {"test_system": "BM cells", "assay": "TUNEL apoptosis in BM cells after prolonged treatment with NOS inhibitors", "assay_type": "in vivo", "conditions": "control 8+/−3%", "description": "To test whether prolonged treatment with NOS inhibitors affects the rate of programmed cell death in BM cells, the number of aproptotic cells in the preparation of BM cells was examined."}, "developing Xenopus brain": {"test_system": "developing Xenopus brain", "assay": "Plastic impregnated with NOS inhibitors in brain ventricle of stage 43 tadpoles (BrdU, TUNEL)", "assay_type": "in vivo, Xenopus laevis", "conditions": "stage 43 tadpoles, 3, 7 and 12 days, vs control brains", "method": "After 3, 7 and 12 days, animals were examined for changes in the patterns of cell division, differentiation, survival, and morphology of the brain. […] Whether the inhibition of NOS and excessive proliferation of cells in the developing brain affects the programmed death of neurons in the tectum was tested. […] The increase in the number of TUNEL-positive cells is not due to toxicity of the inhibitors, since cells continued to incorporate BrdU very effectively. […] Alternatively, this may indicate that differentiated neurons became dependent on NO for survival, similar to the situation in fully differentiated PC12 cells (Peunova et al., 1996). Neuronal differentiation in the brain is affected"}, "[4]": {"test_system": "tadpole brain, optic tectum", "assay": "Elvax implants with NO donor or NOS inhibitor in brain ventricle of stage 45 tadpoles, optic tectum analysis", "assay_type": "in vivo", "conditions": "7d"}}, "note": "Marks after values point to notes of the source that are not given here.", "data": [{"smiles": "CC(=O)N[C@H](C(=O)O)C(C)(C)SN=O", "note": "(racemic) [SNAP, S-nitroso-N-acetylpenicillamine]", "values": [{"measurement": "BrdU-positive cells (total)", "setting": "[1]; 1d", "value": "12 +/− 2"}, {"measurement": "BrdU-positive cells per 10^3 cells", "setting": "[1]; 1d", "value": 3}, {"measurement": "TUNEL-positive cells (total)", "setting": "[1]; 1d", "value": "138 +/− 12"}, {"measurement": "TUNEL-positive cells per 10^3 cells", "setting": "[1]; 1d", "value": 34}, {"measurement": "brain volume", "setting": "[1]; 1d", "value": "66.2 +/− 6.4 mm^3 × 10^−4"}, {"measurement": "cell density", "setting": "[1]; 1d", "value": "62.6 +/− 14.1 cells per mm^3 × 10^−4"}, {"measurement": "cell number", "setting": "[1]; 1d", "value": "3983 +/− 606"}, {"measurement": "BrdU-positive cells (total), change", "setting": "[1]; 1d", "value": "−96.2", "unit": "%"}, {"measurement": "BrdU-positive cells per 10^3 cells, change", "setting": "[1]; 1d", "value": "−95.2", "unit": "%"}, {"measurement": "TUNEL-positive cells (total), change", "setting": "[1]; 1d", "value": "−28.2", "unit": "%"}, {"measurement": "TUNEL-positive cells per 10^3 cells, change", "setting": "[1]; 1d", "value": "−10.5", "unit": "%"}, {"measurement": "brain volume, change", "setting": "[1]; 1d", "value": "−15.6", "unit": "%"}, {"measurement": "cell density, change", "setting": "[1]; 1d", "value": "−2.8", "unit": "%"}, {"measurement": "cell number, change", "setting": "[1]; 1d", "value": "−20.7", "unit": "%"}, {"measurement": "BrdU-positive cells (total)", "setting": "[1]; 3d", "value": "316 +/− 22"}, {"measurement": "BrdU-positive cells per 10^3 cells", "setting": "[1]; 3d", "value": 63}, {"measurement": "TUNEL-positive cells (total)", "setting": "[1]; 3d", "value": "82 +/− 10"}, {"measurement": "TUNEL-positive cells per 10^3 cells", "setting": "[1]; 3d", "value": 16}, {"measurement": "brain volume", "setting": "[1]; 3d", "value": "80.1 +/− 8.6* mm^3 × 10^−4"}, {"measurement": "cell density", "setting": "[1]; 3d", "value": "62.3 +/− 1.7** cells per mm^3 × 10^−4"}, {"measurement": "cell number", "setting": "[1]; 3d", "value": "5012 +/− 594**"}, {"measurement": "BrdU-positive cells (total), change", "setting": "[1]; 3d", "value": "−34.0", "unit": "%"}, {"measurement": "BrdU-positive cells per 10^3 cells, change", "setting": "[1]; 3d", "value": "+21.1%"}, {"measurement": "TUNEL-positive cells (total), change", "setting": "[1]; 3d", "value": "−51", "unit": "%"}, {"measurement": "TUNEL-positive cells per 10^3 cells, change", "setting": "[1]; 3d", "value": "−11.1", "unit": "%"}, {"measurement": "brain volume, change", "setting": "[1]; 3d", "value": "−31.3", "unit": "%"}, {"measurement": "cell density, change", "setting": "[1]; 3d", "value": "−20.8", "unit": "%"}, {"measurement": "cell number, change", "setting": "[1]; 3d", "value": "−45.1", "unit": "%"}, {"measurement": "stock concentration found to be effective", "setting": "[1]; Elvax stock, range of concentrations tested", "value": 300, "unit": "mM"}, {"measurement": "number of proliferating cells, of the control value", "setting": "[1]; day 1", "value": 5, "unit": "%"}]}, {"smiles": "CCSC(=N)N", "note": "[ETU, 2-ethyl-2-thiopseudourea]", "values": [{"measurement": "c-kit positive BM cells", "setting": "BM cells [2]; control 2%", "value": 84, "unit": "%"}, {"measurement": "IL-3-R positive BM cells", "setting": "BM cells [2]; control 7%", "value": 83, "unit": "%"}, {"measurement": "GM-CSF-R positive BM cells", "setting": "BM cells [2]; control 18%", "value": 10, "unit": "%"}, {"measurement": "G-CSF-R positive BM cells", "setting": "BM cells [2]; control 24%", "value": 8, "unit": "%"}, {"measurement": "proportion of apoptotic cells (TUNEL) in BM", "setting": "BM cells [3]", "value": 8, "unit": "%"}, {"measurement": "number of cells in the S phase (BrdU labeling) in the brain", "setting": "developing Xenopus brain", "value": "dramatic increase"}, {"measurement": "BrdU-positive cells (total)", "setting": "[1]; 7d", "value": "550 +/− 50"}, {"measurement": "BrdU-positive cells per 10^3 cells", "setting": "[1]; 7d", "value": 42}, {"measurement": "TUNEL-positive cells (total)", "setting": "[1]; 7d", "value": "184 +/− 7"}, {"measurement": "TUNEL-positive cells per 10^3 cells", "setting": "[1]; 7d", "value": 14}, {"measurement": "brain volume", "setting": "[1]; 7d", "value": "122.3 +/− 4.3* mm^3 × 10^−4"}, {"measurement": "cell number", "setting": "[1]; 7d", "value": "12870 +/− 690*"}, {"measurement": "BrdU-positive cells per 10^3 cells, change", "setting": "[1]; 7d", "value": "+247%"}, {"measurement": "TUNEL-positive cells (total), change", "setting": "[1]; 7d", "value": "+128%"}, {"measurement": "TUNEL-positive cells per 10^3 cells, change", "setting": "[1]; 7d", "value": "+40.0%"}, {"measurement": "cell number, change", "setting": "[1]; 7d", "value": "+53.7%"}, {"measurement": "toxicity to the animals", "setting": "[1]; Elvax stock 1 M L-NAME, 10 mM ETU, increased BrdU incorporation", "value": "without any signs of toxicity"}, {"measurement": "cell density", "setting": "[4]", "value": "105 +/− 3* cells per mm^3 × 10^−4"}, {"measurement": "BrdU-positive cells (total), change", "setting": "[4]; vs saline control", "value": "+269%"}, {"measurement": "cell density, change", "setting": "[4]; vs saline control", "value": "+25.5%"}]}]}
